Laboratory results as given in PubChem BioAssay AID248 (DTP/NCI, 2004).
Toxic doses and inconclusive results are not listed.

Tested on: L1210 leukemia ip in BDF1 mice, survival T/C
Assay: NCI In Vivo Anticancer Drug Screen. Data for tumor model L1210 Leukemia (intraperitoneal) in B6D2F1 (BDF1) mice
Conditions: endpoint: mean survival time, higher = longer survival
Summary of the method: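 Antitumor effect is assessed in tumor-bearing animals. Survival in the compound arm is compared with a vehicle-dosed control arm and expressed as their quotient.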

[1] = dose: 100.0 mg/kg/injection, schedule: Q01DX001 (ip), vehicle: saline
[2] = dose: 200.0 mg/kg/injection, schedule: Q01DX001 (ip), vehicle: saline
[3] = dose: 400.0 mg/kg/injection, schedule: Q01DX001 (ip), vehicle: saline
[4] = dose: 100.0 mg/kg/injection, schedule: Q01DX009 (ip), vehicle: saline
[5] = dose: 100.0 mg/kg/injection, schedule: Q04DX003 (ip), vehicle: saline
[6] = dose: 200.0 mg/kg/injection, schedule: Q01DX009 (ip), vehicle: saline
[7] = dose: 200.0 mg/kg/injection, schedule: Q04DX003 (ip), vehicle: saline
[8] = dose: 100.0 mg/kg/injection, schedule: Q04DX003 (ip), vehicle: saline with Tween-80
[9] = dose: 200.0 mg/kg/injection, schedule: Q04DX003 (ip), vehicle: saline with Tween-80
[10] = dose: 400.0 mg/kg/injection, schedule: Q04DX003 (ip), vehicle: saline with Tween-80
[11] = dose: 100.0 mg/kg/injection, schedule: Q01DX009 (ip), vehicle: Klucel (hydroxypropylcellulose) (HPC)
[12] = dose: 200.0 mg/kg/injection, schedule: Q01DX009 (ip), vehicle: Klucel (hydroxypropylcellulose) (HPC)
[13] = dose: 400.0 mg/kg/injection, schedule: Q01DX009 (ip), vehicle: Klucel (hydroxypropylcellulose) (HPC)
[14] = dose: 100.0 mg/kg/injection, schedule: Q04DX003 (ip), vehicle: Klucel (hydroxypropylcellulose) (HPC)
[15] = dose: 100.0 mg/kg/injection, schedule: Q01DX001 (ip), vehicle: carboxymethylcellulose (CMC)
[16] = dose: 400.0 mg/kg/injection, schedule: Q01DX001 (ip), vehicle: carboxymethylcellulose (CMC)

SMILES: O=C(Cc1ccccn1)NCCc1ccccc1
- T/C (dose: 75.0 mg/kg/injection, schedule: Q01DX009 (ip), vehicle: saline): 93 % of control
- T/C (dose: 75.0 mg/kg/injection, schedule: Q04DX003 (ip), vehicle: saline): 108 % of control
- T/C (dose: 150.0 mg/kg/injection, schedule: Q01DX009 (ip), vehicle: saline): 94 % of control
- T/C (dose: 150.0 mg/kg/injection, schedule: Q04DX003 (ip), vehicle: saline): 108 % of control
- T/C (dose: 300.0 mg/kg/injection, schedule: Q04DX003 (ip), vehicle: saline): 90 % of control

SMILES: C=C(C)COc1c(Cl)cc(Cl)cc1C=Nc1ccccc1
- T/C (dose: 50.0 mg/kg/injection, schedule: Q01DX009 (ip), vehicle: saline with Tween-80): 101 % of control
- T/C (dose: 100.0 mg/kg/injection, schedule: Q01DX001 (ip), vehicle: saline with Tween-80): 94 % of control
- T/C (dose: 100.0 mg/kg/injection, schedule: Q01DX009 (ip), vehicle: saline with Tween-80): 90 % of control
- T/C (dose: 200.0 mg/kg/injection, schedule: Q01DX001 (ip), vehicle: saline with Tween-80): 89 % of control
- T/C (dose: 200.0 mg/kg/injection, schedule: Q01DX009 (ip), vehicle: saline with Tween-80): 104 % of control

SMILES: CC1NC(=S)N(c2ccc(S(=O)(=O)c3ccc(N4C(=O)C(C)NC4=S)cc3)cc2)C1=O (stereo not given)
- T/C [1]: 102 % of control
- T/C [2]: 98 % of control
- T/C [3]: 98 % of control

SMILES: CNC(=O)C(C)C1C(=O)/C(=C(O)/C=C/C(C)=C\C(C)C2OC3(C)OC(C=CC34CO4)C2C)C(=O)N1C1CCC(O)C(C)O1 (stereo not given)
- T/C [4]: 111 % of control
- T/C [5]: 97 % of control
- T/C [6]: 101 % of control
- T/C [7]: 105 % of control
- T/C (dose: 400.0 mg/kg/injection, schedule: Q04DX003 (ip), vehicle: saline): 107 % of control

SMILES: CN(C)C(=O)Sc1cccnc1
- T/C [4]: 116 % of control
- T/C [6]: 119 % of control

SMILES: O=[N+]([O-])c1ccccc1S(=O)(=O)C1CC1c1ccccc1 (stereo not given)
- T/C [1]: 109 % of control
- T/C [2]: 102 % of control
- T/C [3]: 103 % of control

SMILES: CC1CCCC(CN=Cc2cc(Cl)ccc2O)[N-]1.CC1CCCC(CN=Cc2cc(Cl)ccc2O)[N-]1.[Ni+2] (stereo not given)
- T/C [8]: 96 % of control
- T/C [9]: 90 % of control
- T/C [10]: 91 % of control

SMILES: Nc1cccc(C(=O)NCc2cccnc2)c1
- T/C (dose: 100.0 mg/kg/injection, schedule: Q04DX002 (ip), vehicle: saline): 110 % of control
- T/C (dose: 200.0 mg/kg/injection, schedule: Q04DX002 (ip), vehicle: saline): 107 % of control
- T/C (dose: 400.0 mg/kg/injection, schedule: Q04DX002 (ip), vehicle: saline): 104 % of control

SMILES: CCOC(=O)NC(NC(=O)OCC)C(Cl)CC (stereo not given)
- T/C [1]: 107 % of control
- T/C [2]: 97 % of control
- T/C [3]: 101 % of control

SMILES: CCCCN(CCCC)C(=O)NS(=O)(=O)c1ccc(N)cc1
- T/C [8]: 95 % of control
- T/C [9]: 104 % of control
- T/C [10]: 101 % of control

SMILES: Cc1ccc2[nH]c(=S)n(-c3cccc(C(F)(F)F)c3)c(=O)c2c1
- T/C [11]: 96 % of control
- T/C [12]: 104 % of control
- T/C [13]: 100 % of control

SMILES: c1ccc([Si](O[O][Ge]([c]2ccccc2)([c]2ccccc2)[c]2ccccc2)(c2ccccc2)c2ccccc2)cc1
- T/C [14]: 93 % of control
- T/C (dose: 200.0 mg/kg/injection, schedule: Q04DX003 (ip), vehicle: Klucel (hydroxypropylcellulose) (HPC)): 86 % of control
- T/C (dose: 400.0 mg/kg/injection, schedule: Q04DX003 (ip), vehicle: Klucel (hydroxypropylcellulose) (HPC)): 89 % of control

SMILES: CC(C)(C)OC1C2C=CC1C=C2 (stereo not given)
- T/C (dose: 12.5 mg/kg/injection, schedule: Q04DX003 (ip), vehicle: Klucel (hydroxypropylcellulose) (HPC)): 93 % of control
- T/C (dose: 25.0 mg/kg/injection, schedule: Q04DX003 (ip), vehicle: Klucel (hydroxypropylcellulose) (HPC)): 91 % of control
- T/C (dose: 50.0 mg/kg/injection, schedule: Q04DX003 (ip), vehicle: Klucel (hydroxypropylcellulose) (HPC)): 91 % of control
- T/C [14]: 95 % of control

SMILES: CC(=O)C(C(=O)NCc1ccccc1)C(c1ccc2c(c1)OCO2)C(C(C)=O)C(=O)NCc1ccccc1 (stereo not given)
- T/C [1]: 98 % of control
- T/C [2]: 96 % of control
- T/C [3]: 97 % of control

SMILES: COC1CC(OC2OC(CO)C(O)C(O)C2O)/C(=C\C#N)C(O)C1OC (stereo not given)
- T/C (dose: 50.0 mg/kg/injection, schedule: Q01DX009 (ip), vehicle: saline): 106 % of control
- T/C (dose: 50.0 mg/kg/injection, schedule: Q04DX003 (ip), vehicle: saline): 103 % of control
- T/C [4]: 103 % of control
- T/C [5]: 100 % of control
- T/C [6]: 101 % of control
- T/C [7]: 101 % of control

SMILES: O=P(Oc1ccccc1)(Oc1ccccc1)Oc1ccccc1Cl
- T/C [1]: 96 % of control
- T/C [2]: 102 % of control
- T/C [3]: 97 % of control

SMILES: CC(C#N)CN1CC1 (stereo not given)
- T/C (dose: 20.0 mg/kg/injection, schedule: Q01DX001 (ip), vehicle: Klucel (hydroxypropylcellulose) (HPC)): 101 % of control

SMILES: CCCCCCCCCCCCCCCCCCNC(=O)NC(C)(C)C
- T/C (dose: 100.0 mg/kg/injection, schedule: Q04DX002 (ip), vehicle: Klucel (hydroxypropylcellulose) (HPC)): 111 % of control
- T/C (dose: 200.0 mg/kg/injection, schedule: Q04DX002 (ip), vehicle: Klucel (hydroxypropylcellulose) (HPC)): 100 % of control
- T/C (dose: 400.0 mg/kg/injection, schedule: Q04DX002 (ip), vehicle: Klucel (hydroxypropylcellulose) (HPC)): 111 % of control

SMILES: C[n+]1ccccc1/C=C/c1cccc(O)c1
- T/C (dose: 9.38 mg/kg/injection, schedule: Q01DX001 (ip), vehicle: other): 103 % of control
- T/C (dose: 18.75 mg/kg/injection, schedule: Q01DX001 (ip), vehicle: other): 100 % of control

SMILES: O=C1/C(=C/c2ccc(Cl)cc2)CCc2ccccc21
- T/C [1]: 101 % of control
- T/C [4]: 97 % of control
- T/C [2]: 101 % of control
- T/C [6]: 96 % of control
- T/C [3]: 97 % of control
- T/C (dose: 400.0 mg/kg/injection, schedule: Q01DX009 (ip), vehicle: saline): 86 % of control

SMILES: C/C(=C\CN1C(=O)CCCC1=O)CCC(=O)O
- T/C (dose: 100.0 mg/kg/injection, schedule: Q01DX009 (ip), vehicle: other): 90 % of control
- T/C (dose: 100.0 mg/kg/injection, schedule: Q04DX003 (ip), vehicle: other): 102 % of control
- T/C (dose: 200.0 mg/kg/injection, schedule: Q01DX009 (ip), vehicle: other): 98 % of control
- T/C (dose: 200.0 mg/kg/injection, schedule: Q04DX003 (ip), vehicle: other): 91 % of control
- T/C (dose: 400.0 mg/kg/injection, schedule: Q01DX009 (ip), vehicle: other): 93 % of control
- T/C (dose: 400.0 mg/kg/injection, schedule: Q04DX003 (ip), vehicle: other): 93 % of control

SMILES: COc1cc(C)cccc1=O
- T/C (dose: 50.0 mg/kg/injection, schedule: Q01DX001 (ip), vehicle: carboxymethylcellulose (CMC)): 107 % of control
- T/C [15]: 107 % of control
- T/C (dose: 200.0 mg/kg/injection, schedule: Q01DX001 (ip), vehicle: carboxymethylcellulose (CMC)): 96 % of control
- T/C [16]: 98 % of control

SMILES: O=C(Nc1ccc2c(c1)Cc1cc([N+](=O)[O-])ccc1-2)C(F)(F)F
- T/C [8]: 94 % of control
- T/C [9]: 94 % of control
- T/C [10]: 94 % of control

SMILES: CCOC(=O)C(Cc1ccc(N(CCCl)CCCl)cc1)NP1(=O)NCCCO1 (stereo not given)
- T/C (dose: 2.0 mg/kg/injection, schedule: Q01DX015 (ip), vehicle: carboxymethylcellulose (CMC)): 123 % of control
- T/C (dose: 14.0 mg/kg/injection, schedule: Q01DX015 (ip), vehicle: carboxymethylcellulose (CMC)): 92 % of control
- T/C (dose: 18.0 mg/kg/injection, schedule: Q01DX015 (ip), vehicle: other): 167 % of control
- T/C (dose: 28.14 mg/kg/injection, schedule: Q01DX015 (ip), vehicle: carboxymethylcellulose (CMC)): 117 % of control
- T/C (dose: 30.0 mg/kg/injection, schedule: Q01DX015 (ip), vehicle: other): 156 % of control
- T/C (dose: 48.0 mg/kg/injection, schedule: Q01DX015 (ip), vehicle: carboxymethylcellulose (CMC)): 94 % of control
- T/C (dose: 50.0 mg/kg/injection, schedule: Q01DX015 (ip), vehicle: other): 109 % of control
- T/C [15]: 111 % of control
- T/C (dose: 100.0 mg/kg/injection, schedule: Q01DX001 (ip), vehicle: other): 160 % of control
- T/C [16]: 115 % of control

SMILES: O=C(N/N=C/c1cccnc1)c1cccc([N+](=O)[O-])c1
- T/C [11]: 89 % of control
- T/C [12]: 95 % of control
- T/C [13]: 101 % of control
